Data reported in patent US20180369118A1, “METHODS FOR SPORE REMOVAL” (3M INNOVATIVE PROPERTIES COMPANY, priority 2015, published 2018).

Tested on: C.sporogenes spores ATCC 3584
Test: In-vitro removal of spores from Vitro-Skin (finger bag collection method)
Settings: Example 4
Excerpt: The in-vitro method was designed to evaluate the removal of microbes from skin using a synthetic skin material from the cosmetic industry, Vitro-skin from IMS inc, Portland MeThis method enables rapid screening of formulations for their propensity to promote release of microbes from skin and may be predictive of in-vivo activity.
The following materials were utilized. C.sporogenes spores ATCC 3584˜1.0×10̂8 CFU/ml; Triton-X 100 sampling buffer (pH 7.4) Filter Sterilized: 0.4 g KH2PO4, 10.1 g Na2HPO4, 1 g Triton-X 100, and 1 L dH2O; D/E neutralizing broth; Fingers from disposable polyethylene gloves (VWR 32915-268); Sterile dH2O (WFI quality water); 3M AC Petrifilm; and 5 ml Falcon tubes; 1.5 ml EPI Centrifuge tubes; Petri Dishes; Vitro-Skin IMS Inc.; and double-sided tape.
The method included the following. Punched-out specified number of Vitro-Skin samples using the ¾″ punch. Attached punch-out Vitro-Skin samples to a Petri-dish or any other sterile flat surface using double-sided tape. Contaminated the Vitro-Skin samples accordingly with 10μl of spores/spore prep (˜1×10̂6 CFU/Sample). Used the pipette tip to spread spores over the surface and used a new pipette tip for each sample. Allowed the samples to dry (˜40 minutes). […]
For best statistical data each test solution was repeated 3 times. […] Counted plates and analyzed data.

N=C(NCCCCCCNC(=N)NC(=N)Nc1ccc(Cl)cc1)NC(=N)Nc1ccc(Cl)cc1.O=C(O)[C@H](O)[C@@H](O)[C@H](O)[C@H](O)CO.O=C(O)[C@H](O)[C@@H](O)[C@H](O)[C@H](O)CO [CHG, Chlorhexidine gluconate]
spore removal (in words): poor spore removal
